Assay results published in US20250066369A1, “BICYCLIC PHTHALAZIN-1(2H)-ONE DERIVATIVES AND RELATED USES” (NodThera Limited, priority 2022, published 2025).
pIC50: −log10 of the molar value.

System: IL-1β release upon NLRP3 activation in peripheral blood mononuclear cells (PBMC)
Test: PBMC IC50 determination assay: inhibition of IL-1β release upon NLRP3 activation
Format: cell-based
Conditions: PBMC, PBMC primed with LPS 3 h, compound 30 min, stimulated with ATP (5 mM) or nigericin (10 μM) 1 h; IL-1β by ELISA (Protocol A) or HTRF (Protocol B)
Outline: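 Human PBMC from buffy coats were primed 3 h with LPS (1 μg/mL in Protocol B), given compound for 30 min, then stimulated 1 h with ATP (5 mM) or nigericin (10 μM; Protocol A only). Released IL-1β was quantified by ELISA at 450 nm (Protocol A) or HTRF at […] (Protocol B).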

Row | SMILES | pIC50
1 | COc1cc2c(=O)n(CC(=O)Nc3ncccn3)nc(C(C)C)c2o1 [Compound 108, 2-[2-Methoxy-4-oxo-7-(propan-2-yl)-4H,5H-furo[2,3-d]pyridazin-5-yl]-N-(pyrimidin-2-yl)acetamide] | 5.00 to 5.52
2 | [2H]C([2H])([2H])Nc1cc2c(C(C)C)nn(CC(=O)Nc3ncccn3)c(=O)c2s1 [Compound 109, 2-{2-Trideuteromethylamino-7-oxo-4-(propan-2-yl)-6H,7H-thieno[2,3-d]pyridazin-6-yl}-N-(pyrimidin-2-yl)acetamide] | ≥ 7.00
3 | CCNc1cc2c(C(C)C)nn(C3(C(=O)Nc4ncccn4)CC3)c(=O)c2s1 [Compound 110, 1-[2-(Ethylamino)-7-oxo-4-(propan-2-yl)-6H,7H-thieno[2,3-d]pyridazin-6-yl]-N-(pyrimidin-2-yl)cyclopropane-1-carboxamide] | 5.00 to 5.52
4 | CNc1cc2c(=O)n(CC(=O)Nc3ncccn3)nc(C(C)C)c2o1 [Compound 111, 2-[2-(Methylamino)-4-oxo-7-(propan-2-yl)-4H,5H-furo[2,3-d]pyridazin-5-yl]-N-(pyrimidin-2-yl)acetamide] | 6.00 to 7.00
5 | CNc1cc2c(C3CC3)nn(CC(=O)Nc3ncccn3)c(=O)c2s1 [Compound 112, 2-[4-Cyclopropyl-2-(methylamino)-7-oxo-6H,7H-thieno[2,3-d]pyridazin-6-yl]-N-(pyrimidin-2-yl)acetamide] | 6.00 to 7.00
6 | CNc1cc2c(C(C)C)nn(C3(C(=O)Nc4ncccn4)CC3)c(=O)c2s1 [Compound 113, 1-[2-(Methylamino)-7-oxo-4-(propan-2-yl)-6H,7H-thieno[2,3-d]pyridazin-6-yl]-N-(pyrimidin-2-yl)cyclopropane-1-carboxamide] | 4.30 to 5.00
7 | CCc1nn(CC(=O)Nc2ncccn2)c(=O)c2sc(NC)cc12 [Compound 114, 2-[4-ethyl-2-(methylamino)-7-oxo-6H,7H-thieno[2,3-d]pyridazin-6-yl]-N-(pyrimidin-2-yl)acetamide] | 6.00 to 7.00
8 | CCc1nn(CC(=O)Nc2ncco2)c(=O)c2sc(NC)cc12 [Compound 115, 2-[4-Ethyl-2-(methylamino)-7-oxo-6H,7H-thieno[2,3-d]pyridazin-6-yl]-N-(1,3-oxazol-2-yl)acetamide] | 6.00 to 7.00
9 | CCc1nn(CC(=O)Nc2ncccn2)c(=O)c2sc(C)cc12 [Compound 116] | 5.52 to 6.00
10 | Cc1cc2c(C)nn(CC(=O)Nc3ncccn3)c(=O)c2s1 [Compound 117, 2-{2,4-Dimethyl-7-oxo-6H,7H-thieno[2,3-d]pyridazin-6-yl}-N-(pyrimidin-2-yl)acetamide] | 5.52 to 6.00
11 | CNc1cc2c(C)nn(CC(=O)Nc3ncccn3)c(=O)c2s1 [Compound 118, 2-[4-methyl-2-(methylamino)-7-oxo-6H,7H-thieno[2,3-d]pyridazin-6-yl]-N-(pyrimidin-2-yl)acetamide] | 5.52 to 6.00
12 | CNc1cc2c(C)nn(CC(=O)Nc3ncco3)c(=O)c2s1 [Compound 119, 2-[4-Methyl-2-(methylamino)-7-oxo-6H,7H-thieno[2,3-d]pyridazin-6-yl]-N-(1,3-oxazol-2-yl)acetamide] | 5.52 to 6.00
13 | CC(C)c1nn(CC(=O)Nc2ncccn2)c(=O)c2sc(CN)cc12 [Compound 120, 2-[2-(Aminomethyl)-7-oxo-4-(propan-2-yl)-6H,7H-thieno[2,3-d]pyridazin-6-yl]-N-(pyrimidin-2-yl)acetamide] | 4.30 to 5.00
